Columns and labels:
[1] = test system: adenosine monophosphate-activated protein kinase (AMPK); assay: Activation of AMPK (p-AMPK/AMPK, Western blotting) in myotube cell model L6-GLUT4myc; assay type: cell-based, rat; conditions: HPH-15 at 1/200th the concentration of metformin (2 mM), 24 hours
From the text: The tissues involved in glucose uptake and glucose metabolism are mainly the muscle, the liver, and the fat. Thus, using a cell model of each tissue, the relationship between HPH-15 and activation of adenosine monophosphate-activated protein kinase (AMPK) was examined. Note that AMPK is known as a therapeutic target for diabetes. AMPK acts as an energy sensor, and when it detects a decrease in ATP serving as an intracellular energy source, it suppresses the synthesis of glucose, fats, and proteins and produces ATP. Exercise therapy for diabetes is based on this mechanism. Further, AMPK has been drawing attention as a factor that improves insulin resistance.
As a muscle cell model to be used, rat myoblast cell line L6-GLUT4myc (myoblasts expressing myc-tagged GLUT4) was cultured in a minimal essential medium a-MEM (10% FBS) and differentiated into myotubes. Differentiation into myotubes was performed by culturing L6-GLUT4 cells in a-MEM (10% FBS) and then changing the medium to a-MEM (2% FBS), followed by culturing for 6 days. Human HepG2 cell line was used as a liver cell model. As an adipocyte model to be used, mouse 3T3-L1 preadipocyte cell line was differentiated into adipocytes. Differentiation into adipocytes was performed as follows. […]
Next, bands of AMPK and p-AMPK were quantified using ImageJ to determine a ratio of activated AMPK relative to AMPK (p-AMPK/AMPK).

[2] = test system: liver cell model HepG2 cells; assay: Cytotoxicity (MTT reagent); assay type: cell-based, human; conditions: HPH-15 1 μM, 10 μM or 50 μM, 24 hours
Description: It was examined whether using HPH-15 as a drug caused any cytotoxicity.
The myotube cell model L6-GLUT4myc, the liver cell model HepG2 cells, and the adipocyte model 3T3-L1 used in Example 1 were each seeded onto a 24-well plate (1×10^5 cells/well, […] of culture liquid) and cultured overnight. Then, a DMSO solution (1%) containing HPH-15 (final concentration: 1 μM, 10 μM or 50 μM) was added to the medium, and the cells were further cultured for 24 hours. As a control, only DMSO solution (1%) was added, and the cells were cultured for 24 hours in the same manner. Next, […] of MTT reagent (3-(4,5-dimethyl-2-thiazolyl)-2,5-diphenyl-2H-tetrazolium bromide: 1.1 mg/mL: Dojindo Laboratories) was added to each well, and the cells were further cultured for 4 hours. After collecting the precipitated crystals, the supernatant was removed and DMSO ([…]) was added to completely dissolve the crystals. Cytotoxicity was evaluated by measuring the absorbance (550 nm) of the solution and determining the number of viable cells.

[3] = test system: high-fat diet-induced obesity model mice; assay: H&E staining of mouse tissue; assay type: in vivo
Description: High-fat diet-induced obesity model mice were prepared in the same manner as in Example 7. Note that the high-fat diet-induced obesity model mice develop liver damage and are thus used as a liver disease model. Then, HPH-15 (10 mg/kg or 100 mg/kg, […]) dissolved in olive oil or metformin (300 mg/kg, […]) was orally administered once a day for 28 days. Olive oil alone was administered as a control. After administration of each for 28 days, the liver, epididymis, and muscle of the high-fat diet-induced obesity model mice were stained with H&E and observed using a microscope. The results of H&E staining of the liver are shown in FIG. 12A, the results of H&E staining of the epididymis are shown in FIG. 12B, and the results of H&E staining of the muscle are shown in FIG. 12C.

[4] = HPH-15 10 or 100 mg/kg orally 28 days

In the case of `CC(C)(C)SCCNC(=S)c1cccc(C(=S)NCCSC(C)(C)C)n1` [HPH-15], the “AMPK activation (p-AMPK/AMPK) compared to when metformin was used” value [1] is reported as “approximately 75%”, the “cytotoxicity (number of viable cells)” value [2] is reported as “no cytotoxicity was confirmed” and the “visible fat in liver tissue and epididymal adipose tissue (H&E)” value ([3]; HPH-15 100 mg/kg orally 28 days) is reported as “almost no fat was visible”. The “cell area ratio in the epididymal adipose tissue (size of adipocytes, H&E)” value [3, 4] was “reducing the cell area ratio”, the “macrophage infiltration in epididymal adipose tissue (H&E)” value [3, 4] was “does not cause macrophage infiltration” and the “percentage of fat in the liver tissue (H&E)” value ([3]; HPH-15 10 or 100 mg/kg orally 28 days, compared to the control and metformin 300 mg/kg) was “significantly reducing the percentage of fat in the liver tissue”. The “tissue changes or toxicity in the muscle (H&E)” value ([3]; orally once a day 28 days, FIG. 12C) was “no tissue changes or toxicity was observed”.
